According to patent EP1452605A1, “Method for determining antiviral activity” (Universiteit Utrecht Holding B.V., priority 2003, dated 2004):
Values joined by “and” are separate entries in the source; they are usually repeats but may differ in a detail not shown here. Equal values may be shown once.

Columns and labels:
in vitro = conditions: human
HIV-1HXB2 = assay: Reverse transcription assay in PBMC: (-) strong stop and gag DNA by real-time Taqman PCR; type: cell-based; conditions: 10h after infection; for reduction in gag cDNA copies: PBMC
Protocol: PBMC infection with HIV-1Ba-L or HIV-1HXB2 for real-time Taqman PCR The ability of HIV-1Ba-L to enter the cells in the presence of APHS was tested using DS as positive control (entry assay). The amount of HIV-1HXB2 reverse transcription products in the presence of APHS was also tested, using AZT as positive control (reverse transcription assay). Before infection, PHA-stimulated PBMC from the PBMC batch were pre-incubated with different concentrations of APHS, DS or AZT for 24 h. Afterwards, cells were washed and 1 × 10^6 PBMC were incubated for 40 min with HIV-1Ba-L or HIV-1HXB2 at an M.O.I. of 0.0025 and with appropriate concentrations of APHS, AZT, DS or medium in the presence of 1/20 concentrated M buffer (Roche) and 4U/ml DNase (Roche) to digest possible contaminating viral DNA associated with the virions. Afterwards PBMC were washed and resuspended in medium with or without compounds. Cells were treated with 1 mg/ml Pronase (Roche) to remove virus particles bound to the cells. […] At different time points, 1.0 × 10^6 cells were added to 900 µl Nuclisens lysis buffer (Organon Teknika, Boxtel, The Netherlands) containing 40 µl silica to bind total nucleic acids (Nuclisens isolation kit). For the entry assay, samples were collected 2h after the start of the infection and for the reverse transcription assays samples were collected 2, 7 and 10h after the start of the infection.
HIV RNA and DNA were extracted from samples of infected cells according to a method described before ^23. Briefly, after 10 min of mixing the silica and lysis buffer, tubes were shortly centrifuged at 13,000 rpm and supernatant was discarded. Free non-nucleic acid components were removed by washing the silica particles twice with Nuclisens washing buffer, twice with 70 % ethanol and once with acetone. The silica pellet was dried for 10 min at 56 °C. Total nucleic acids were eluted by resuspending the pellet in 100 µl nuclease-free water. After mixing the tubes for 10 min at 56 °C, tubes were shortly centrifuged and the supernatant was transferred to a new tube and stored at -20 °C.
Real-time Taqman PCR is based on cleavage of a probe, hybridized to the target sequence by 5'-3' nuclease activity of Taq DNA polymerase during amplification, as described previously ^24. Briefly, target sequence-specific forward and reverse primers prime the amplification reaction. The probe contains a reporter dye at the 5' end and a quencher dye at the 3' end. When both dyes are attached to the probe, reporter dye emission is quenched. The probe is displaced from the target during each polymeration cycle. Once separated from the quencher, the reporter dye emits its characteristic fluorescence, which can then be measured. The amount of fluorescence measured is proportional to the amount of PCR product.
HIV-1 gag cDNA and HIV-1 (-) strong stop and gag DNA were amplified and quantified by real-time Taqman PCR as described elsewhere ^25. Sets of primers/probes were designed according to a previous study by Zack and colleagues ^26. To quantify the amount of gag RNA in the samples, a cDNA standard curve was prepared from five-fold dilutions of extracted RNA from an HXB2 viral batch, of which the RNA amount was previously determined. To quantify (-) strong stop and gag DNA in the samples, a DNA standard curve was prepared from five-fold dilutions of DNA extracted from U1 cells, which contain two copies of the HIV-1HXB2 genome per cell. Albumin was also quantified and used for normalization of all samples.

HIV-1Ba-L [1] = assay: Combination of HIV-1 inhibitors in HIV-1Ba-L infected PBMC (checker board, CalcuSyn)
Protocol: After 7 days of incubation, p24 antigen in culture supernatant was quantified by ELISA and cellular viability was assessed by a cytotoxicity assay. fa was calculated for each drug combination after p24 quantification. Using the CalcuSyn program, dose-effect curves were plotted for each drug combination, i.e., each dose was plotted against the corresponding fa value. […] CI values were calculated using the mutually nonexclusive assumption.

HIV-1Ba-L [2] = assay: HIV-1 infection of PBMC, p24-core antigen ELISA; type: cell-based; conditions: Human immunodeficiency virus 1, PBMC; read-out: IC50
Protocol: To correct for the input virus, an extra control consisting of medium containing the same amount of input virus as added to the cells was included in the experiment. The amount of p24 in this control was subsequently subtracted from the p24 values of the samples in order to obtain the exact amount of p24 produced by the cells. p24-core antigen quantification by ELISA After 2 or 7 days incubation, samples of the supernatants were collected, inactivated by addition of Empigen (Calbiochem, La Jolla, CA, USA) and by heat inactivation at 56°C for 30 min. p24-core antigen concentration was determined by an enzyme linked immunoabsorbent assay (ELISA) (AMPAK™, DAKO, Cambridgeshire, UK) as described previously ^18,19. The optical density values were converted into p24 concentration (ng/ml) with the use of a calibration curve made by serial dilutions of recombinant p24 protein (NIBSC, UK) that was submitted to the same treatment as the samples.
(§1) To correct for the input virus, an extra control consisting of medium containing the same amount of input virus as added to the cells was included in the experiment. The amount of p24 in this control was subsequently subtracted from the p24 values of the samples in order to obtain the exact amount of p24 produced by the cells.
(§2) After 7 days incubation, samples of the supernatants were collected, inactivated by addition of Empigen (Calbiochem, La Jolla, CA, USA) and by heat inactivation at 56°C for 30 min. p24-core antigen concentration was determined by an ELISA (AMPAK™, DAKO, Cambridgeshire, UK) as described previously ^39,40. The optical density values were converted into p24 concentration (ng/ml) with the use of a calibration curve made by serial dilutions of recombinant p24 protein (NIBSC, UK) that was submitted to the same treatment as the samples.
as §1
as §2, with “enzyme linked immunoabsorbent assay (ELISA)” for “ELISA”, “15,16.” for “^39,40.”

Mouse L cells = assay: Cytotoxicity in mouse L cells by microscopic observation; conditions: mouse L cells, all tested concentrations
Protocol: (§3) After 24h, the cytopatic effect (CPE) of the virus and the cytotoxicity of the compounds were scored by microscopic observation.

CrFK cells = assay: Cellular viability assay (MTT) of CrFK cells; type: cell-based, feline; conditions: concentrations used in the FIV assay
FIV UT-113 = assay: FIV infection of CrFK cells, FIV p24 ELISA; type: cell-based, Feline immunodeficiency virus (FIV); conditions: 100 to 0.024 µM, p24 after 6 days
Protocol: After 6 days of incubation FIV replication was measured by quantification of the p24 viral core antigen in the cell culture supernatant by an FIV p24 enzyme-linked immunoabsorbent assay as described previously ^19.

MHV-A59 = assay: MHV infection of mouse L cells, CPE scoring; type: cell-based, Mouse hepatitis virus (MHV); conditions: 24h, 143 to 0.009 µM
Protocol: as §3

Cc1cn([C@H]2C[C@H](N=[N+]=[N-])[C@@H](CO)O2)c(=O)[nH]c1=O [AZT, zidovudine]
CC50 at 7 days (in vitro): > 80000 nM
reduction in gag cDNA copies (HIV-1HXB2; 5 nM AZT): 35% and 40%
reduction in gag cDNA copies (HIV-1HXB2; 1000 nM AZT): 90%
(-) strong stop DNA copy numbers versus untreated PBMC (HIV-1HXB2; 10 or 30 µM APHS, 5 or 1000 nM AZT): did not show a significant decrease
IC50 (HIV-1Ba-L [1]; Human immunodeficiency virus 1, PBMC, 168 h, read-out: IC50 Drug, drug alone, head over this column prints Combination): 3 nM
IC50 (HIV-1Ba-L [1]; read-out: IC50 Combination Drug, drug in combination with APHS at the equipotent ratio (1 : 1)): 2 nM
IC50 (HIV-1Ba-L [2]): 3 nM

CCCCCSc1ccccc1O [APHS-d, phenol, 2-(pentylthio)]
cytotoxicity by microscopic observation (Mouse L cells): not cytotoxic
cytotoxicity for CrFK cells (CrFK cells): not cytotoxic
effect on FIV replication (FIV UT-113): did not show any effect
effect on MHV replication (CPE) (MHV-A59): no effect
